The subject of one experiment is human platelets. The experiment is described as follows: Inhibition of the arachidonic acid-induced aggregation of human platelets in vitro. It counts as cell-based. Conditions: human platelet-rich plasma; 2×10^-4 M arachidonic acid; preincubation 10 min at 37° C. The method, then:
1. Inhibition of the arachidonic acid-induced aggregation of human platelets in vitro.
Blood is taken, by careful cannulation of the antecubital vein, from apparently healthy male and female volunteers, who have taken no medicaments in the preceding 10-day period, and is immediately stabilized with sodium citrate (ad. 0.38%). Platelet-rich plasma (PRP) is obtained in the supernatant by centrifugation at 140×g for 15 minutes, and the platelet content of this should be in the range 2.5-3.5×10^8 /ml (Coulter counter). The platelet aggregation is followed optically by measurement of the transmission of light in a Born aggregometer. The total volume of the test mix is 0.25 ml. The preincubation time at 37° C. with the test product is 10 min, and aggregation is then induced with 2×10^-4 M arachidonic acid. The test product is, as a rule, tested in five different concentrations in the PRP from three different donors. Dose-effect curves are drawn from the maximal aggregation amplitudes in each case, and the IC50 values* are determined graphically. The measurements are carried out in the period 1-6 hours after blood sampling. […]
The following IC50 values for the inhibition of the arachidonic acid-induced aggregation of human platelets in vitro were determined by the method described above for the compounds according to the invention: […]

Experiment [1] deals with Thrombin-induced TXA2 release. As to the kind of experiment: Thrombin-induced TXA2 release in platelet-rich human plasma in vitro (TXB2 determined radioimmunologically). The experiment is classed as cell-based. The following applies: 0.5 h, relative to without test substance (=100%); for activity at 1 µM: test substance 10^-6 mol/l; for activity at 0.1 µM: test substance 10^-7 mol/l. The method, then: 2. Thrombin-induced TXA2 release in platelet-rich human plasma in vitro
Blood is taken, by careful cannulation of the antecubital vein, from apparently healthy male and female volunteers, who have taken no medicaments in the preceding 10-day period, and is immediately stabilized with sodium citrate (ad. 0.38%). Platelet-rich plasma (PRP) is obtained in the supernatant by centrifugation at 140×g for 15 minutes, and the platelet content of this should be in the range 2.5-3.5×10^8 /ml. The platelets are sedimented by renewed centrifugation (10 min at 2,000×g), and then resolubilized in Tyrode's solution (about 7×10^7 platelets/ml, total volume per measurement 0.5 ml). After addition of test substance, the mixture is incubated at 37° C. for 10 min, and then 7.2×10^-7 M arachidonic acid and 0.5 U thrombin are added, and incubation is carried out at 37° C. for 30 min. This is stopped in an ice bath and, after addition of tracer and TXB2 -specific antibodies (NEN, Dreieich), the TXB2 content is determined radioimmunologically (TXA2 is unstable under the experimental conditions and thus cannot be measured. The stable hydrolysis product TXB2 is measured in its place). The measured variable is the relative TXB2 content in the platelet incubations from two or three different donors with and without (=100%) the test substance.
The following figures for the TXB2 release after administration of the test substance were determined, for example, for the compounds according to the invention by the method described above: […]

For a further experiment, the system named is laser-induced thrombosis. The experiment is described as follows: Inhibition of laser-induced thrombosis. The following applies: one hour before start, rat mesentery arterioles. It counts as in vivo, Sprague-Dawley rats. The method, then: 3. Inhibition of laser-induced thrombosis
The investigations of the compounds according to the invention in the model of laser-induced thrombosis are carried out on male or female Sprague-Dawley rats with a body weight of about 200 g. The animals to be investigated are premedicated s.c. with 0.1 mg of atropine sulfate in solution, and anesthetized i.p. with 100 mg of ketamine hydrochloride and 4 mg of xylazine per kg of body weight. Arterioles from the mesentery, with a diameter of 12-25 μm, are used for the investigation. During the measurement, the exposed mesentery is hyperfused with warmed physiological NaCl (37° C.) or is covered with degassed liquid paraffin. The beam of a 4 W argon laser (supplied by Spectra Physics, Darmstadt, FRG) is introduced coaxially into the inverted ray path of a microscope (ICM 405, LD-Epilan 40/0.60; supplied by Zeiss, Oberkochen, FRG) by means of a ray adaptation and adjustment system (supplied by BTG, Munich, FRG). The wavelength used is 514.5 nm, with an energy above the objective of 40 mW. The single-shot exposure time is 1/15 sec. The diameter of the effective laser beam on the vessel is 10 μm, and with repeated exposure the next shot takes place 5 μm upstream in each case, directly on the vessel wall. All the measurement procedures are filmed by video camera (Sony, Trinicon tube) and stored in a recorder (Sony, U-matic 3/4). A survey image of the terminal vessels which are to be investigated is provided by the transillumination method using the same microscope with low magnification (LD-Epilan 8/0.20). A video-analyzer and a correlator are used to determine the rate of flow in the arterioles under investigation. […]
The number of shots needed to induce a defined thrombus was counted. The frequency of the laser flashes was one lesion every 2 minutes, all the thrombi with a minimum size of 1/4 of the vessel radius which were formed during the observation period being counted and measured. The results of the experiment were statistically analyzed using the X^2 test (L. Cavalli-Sforza, Biometrie, Stuttgart, 1969, page 49 et seq.).

From US4778817A, “Naphthyl imidazolyl compounds and pharmaceutical compositions” (priority 1985, dated 1988) come the findings set out here.

Counter-ions that a name gives are not always drawn.

For `CC(c1ccc2cc(C(=O)O)ccc2c1)n1ccnc1` (stereo not shown) [Example 2, 6-[1-(1-Imidazolyl)ethyl]-2-naphthoic acid hydrochloride], the half-inhibitory concentration (IC50) (usually the concentration that gives 50% inhibition) with human platelets was determined as 3000 nM. For the same compound, in experiment [1], the activity at 1 µM turned out to be 31% and the activity at 0.1 µM stood at 55%.
With `Cc1cncn1Cc1ccc2cc(C(=O)O)ccc2c1.Cl` [Example 4, 6-(5-Methyl-1-imidazolyl)methyl-2-naphthoic acid hydrochloride], 540 nM corresponded to half-maximal inhibition in the experiment with human platelets (IC50). In addition, the activity at 1 µM in experiment [1] is 9%. In experiment [1], this compound returned an activity at 0.1 µM of 19%. This compound had an activity at 0.01 µM in experiment [1] (test substance 10^-8 mol/l) of 98%. The “Number of laser shots to form a thrombus (compared with control)” value was “+16%” in the experiment with laser-induced thrombosis (1 mg/kg p.o.), “+53%” with laser-induced thrombosis (5 mg/kg p.o.) and “+96%” in the experiment with laser-induced thrombosis (10 mg/kg p.o.).
